“And” between values parts separate entries of the source, which are not always exact repeats. Equal values may be shown once.
How the values were obtained:
[1] = target: Anti-cotinine antibody (SEQ ID NO: 11 / SEQ ID NO: 12, rabbit variable region with human IgG1 Fc domain); assay: Binding of anti-cotinine antibody to ARM compounds by SPR, Biacore T200, 37° C. (Example 202); settings: pH 7.4, rabbit variable region/human IgG1 Fc antibody captured on protein A
How it was run: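 Run at 37° C. in 10 mM HEPES pH 7.4, 150 mM NaCl, 0.005% P20, 1% DMSO. Compound titrated from 200 nM (five 3-fold steps) over protein A-captured antibody, with 200/2000 s association/dissociation. 1:1 kinetic fit gave kon, koff, Kd and residence time (1/koff); pKd averaged where runs repeated.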

[2] = target: human alpha1 nicotinic acetylcholine (nACh) receptor (Homo sapiens, UniProt P02708+Q07001); assay: Nicotinic acetylcholine receptor antagonism assay, IONFlux automated patch clamp (Example 203); type: cell-based; settings: for Emax at 10 µM: maximum percentage antagonism at maximum concentration tested 10 μM; for IC50: nAChR antagonism, ACh stimulated, patch clamp
How it was run: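 Human α1 nAChR-expressing cells were preincubated with compound (top 10 μM or 100 μM), then stimulated with 10 mM ACh; peak currents were recorded by IONFlux automated patch clamp. Percent inhibition versus ACh-alone control was vehicle- and rundown-corrected, then fitted to give IC50, with maximal antagonism at the top concentration; recordings with control current <500 pA were excluded.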

[3] = target: Anti-cotinine antibody SEQ ID NO: 11 / SEQ ID NO: 12 (rabbit version); assay: Binding of rabbit anti-cotinine antibody to ARM compounds by SPR, Biacore 8k, 25° C. (Example 202)
Excerpt: (§1) Anti-cotinine antibodies having a heavy chain sequence of SEQ ID NO: 9 and a light chain sequence of SEQ ID NO: 10 (humanized version) or a heavy chain sequence of SEQ ID NO: 11 and a light chain sequence of SEQ ID NO: 12 (rabbit version) were captured via the Fc domain to a protein A or A/G surface on flow cell 2 of a CM5 sensor chip using the Biacore 8k.
(§2) After antibody capture, a 1500 second wait step was included to reduce drift in the binding step. ARM compounds of Formula (I) were then flowed over the captured antibodies at varying top concentrations ranging from 250 nM to 4 μM (see Table 6 below for top concentration values). The top concentration was diluted 4-fold over 5 dilutions (with a 0 nM compound cycle included to blank subtract the data). Association and dissociation times of the ARMs compounds of Formula (I) varied between experiments as follows and indicated in Table 6 below: reference 1—association for 600 seconds and dissociation for 1200 seconds at 20 μl/min; reference 2—association for 240 seconds and dissociation for 300 seconds at 30 μl/min; reference 3—association for 360 seconds and dissociation for 600 seconds at 30 μl/min. Anti-cotinine antibody bound to the protein A or A/G surface was regenerated using 50 mM NaOH. Experiments were run at 25° C. at pH 7.4 using HBS-EP+ buffer using Biacore 8K control software and evaluated using Biacore Insight Evaluation software. Curves were fit with the 1:1 kinetic fit inherent to the software, utilising a local Rmax and local drift setting.
(§3) Anti-cotinine antibody was tested for binding to ARMs compounds of Formula (I) of the invention in the above assay in or more experimental runs and the results are shown in Table 6 below. Affinity is reported as a pKd value. The pKd value is the negative log of the Kd value, wherein the Kd value is the dissociation constant measured in molar (M) as noted above. For compounds tested in more than one experimental run, the pKd value is reported as an average.

[4] = tested on: Anti-cotinine antibody SEQ ID NO: 9 / SEQ ID NO: 10 (humanized version); assay: Binding of humanized anti-cotinine antibody to ARM compounds by SPR, Biacore 8k, 25° C. (Example 202); settings: top concentration 2.50E−08 M
Excerpt: as §1, §2, §3

[5] = reference 3: association 360 s, dissociation 600 s at 30 μl/min
[6] = reference 3: association 360 s, dissociation 600 s at 30 μl/min, top concentration 2.50E−08 or 6.25E−09 M

human alpha1 nicotinic acetylcholine (nACh) receptor, sequence (P02708 21-457): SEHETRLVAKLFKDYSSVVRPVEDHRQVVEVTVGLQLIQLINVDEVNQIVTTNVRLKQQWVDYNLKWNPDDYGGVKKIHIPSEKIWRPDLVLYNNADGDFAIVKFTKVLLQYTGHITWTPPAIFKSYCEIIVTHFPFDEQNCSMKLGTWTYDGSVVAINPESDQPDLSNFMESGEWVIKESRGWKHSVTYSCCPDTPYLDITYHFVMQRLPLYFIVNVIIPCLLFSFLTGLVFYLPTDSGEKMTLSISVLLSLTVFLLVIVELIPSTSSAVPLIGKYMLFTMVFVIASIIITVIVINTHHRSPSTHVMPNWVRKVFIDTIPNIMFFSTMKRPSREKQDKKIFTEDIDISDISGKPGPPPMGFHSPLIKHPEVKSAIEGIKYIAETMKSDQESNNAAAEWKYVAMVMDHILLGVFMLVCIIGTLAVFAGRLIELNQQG
human alpha1 nicotinic acetylcholine (nACh) receptor, sequence (P11230 24-501 partner): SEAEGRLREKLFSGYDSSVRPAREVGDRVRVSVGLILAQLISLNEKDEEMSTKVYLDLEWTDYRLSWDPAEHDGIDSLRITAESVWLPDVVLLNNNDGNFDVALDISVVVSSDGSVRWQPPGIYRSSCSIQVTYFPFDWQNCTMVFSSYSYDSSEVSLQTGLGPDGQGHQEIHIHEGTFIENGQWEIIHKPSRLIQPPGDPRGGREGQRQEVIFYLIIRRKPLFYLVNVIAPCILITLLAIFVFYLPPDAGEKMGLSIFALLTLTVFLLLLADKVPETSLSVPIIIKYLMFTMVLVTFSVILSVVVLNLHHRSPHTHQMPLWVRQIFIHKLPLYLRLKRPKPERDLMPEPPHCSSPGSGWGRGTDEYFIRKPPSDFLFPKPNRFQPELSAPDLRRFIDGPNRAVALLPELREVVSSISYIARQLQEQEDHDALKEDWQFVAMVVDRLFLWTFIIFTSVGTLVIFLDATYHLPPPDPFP
human alpha1 nicotinic acetylcholine (nACh) receptor, sequence (Q07001 22-517): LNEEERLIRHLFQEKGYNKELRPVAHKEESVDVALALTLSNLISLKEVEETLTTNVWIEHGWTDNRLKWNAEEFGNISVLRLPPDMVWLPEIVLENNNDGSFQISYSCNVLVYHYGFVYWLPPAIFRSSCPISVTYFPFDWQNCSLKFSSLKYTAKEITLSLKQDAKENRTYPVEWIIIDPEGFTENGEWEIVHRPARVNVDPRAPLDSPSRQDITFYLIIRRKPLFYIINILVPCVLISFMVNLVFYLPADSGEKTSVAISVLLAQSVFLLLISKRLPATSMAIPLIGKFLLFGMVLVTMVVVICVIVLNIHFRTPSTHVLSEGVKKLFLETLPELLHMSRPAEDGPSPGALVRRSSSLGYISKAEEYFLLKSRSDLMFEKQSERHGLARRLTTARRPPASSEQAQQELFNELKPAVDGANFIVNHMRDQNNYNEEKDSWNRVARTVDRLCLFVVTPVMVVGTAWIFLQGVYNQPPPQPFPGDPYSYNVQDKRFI

| Compound | pKd of Antibody for ARM Compound of Formula (I) [1] | Emax at 10 µM ([2]; read-out: Maximum Response (%)) | IC50 [2] | Emax at 33.33 µM ([2]; maximum percentage antagonism at maximum concentration tested 33.33 μM, read-out: Maximum Response (%)) | pKd ([3]; reference 2: association 240 s, dissociation 300 s at 30 μl/min, top concentration 1.00E−06 or 4.00E−06 M) | ka [4, 5] | kd [4, 5] | pKd [4, 5] | Emax at 100 µM ([2]; maximum percentage antagonism at maximum concentration tested 100 μM, read-out: Maximum Response (%)) | ka [3, 6] | kd [3, 6] | pKd [3, 6] | kd ([4]; reference 1: association 600 s, dissociation 1200 s at 20 μl/min) |
| --- | --- | --- | --- | --- | --- | --- | --- | --- | --- | --- | --- | --- | --- |
| CN1C(=O)C[C@H](C(=O)NCCOCCOCCOCCOCCOCCOCCC(=O)N[C@@H]2C[C@H](NC(C)(C)C)CC[C@@H]2N2CC[C@H](Nc3ncnc4ccc(C(F)(F)F)cc34)C2=O)[C@H]1c1cccnc1 [Example 38] | 9.611 | -2.2% | > 10 µM |  |  |  |  |  |  |  |  |  |  |
| CN1C(=O)C[C@H](C(=O)NCCO[C@H]2CC[C@H](OCCCC(=O)N[C@H]3CC[C@H](C(=O)N[C@@H]4C[C@H](NC(C)(C)C)CC[C@@H]4N4CC[C@H](Nc5ncnc6ccc(C(F)(F)F)cc56)C4=O)CC3)CC2)[C@H]1c1cccnc1 [Example 10] | 9.199 |  | > 33.3 µM | 48% | Poor fit | 1.42e+06 M⁻¹ s⁻¹ | 0.000484 s⁻¹ | 9.47 |  |  |  |  |  |
| CN1C(=O)C[C@H](C(=O)NCCOCCOCCOCCOCCOCCC(=O)N[C@@H]2C[C@H](NC(C)(C)C)CC[C@@H]2N2CC[C@H](Nc3ncnc4ccc(C(F)(F)F)cc34)C2=O)[C@H]1c1cccnc1 [Example 37] | 9.7475 | 7.3% | > 10 µM |  |  |  |  |  |  |  |  |  |  |
| CC(C)N(C)[C@@H]1CC[C@H](N2CC[C@H](Nc3ncnc4ccc(C(F)(F)F)cc34)C2=O)[C@H](NC(=O)[C@H]2CC[C@H](NC(=O)CCCO[C@H]3CC[C@H](OCCNC(=O)[C@H]4CC(=O)N(C)[C@@H]4c4cccnc4)CC3)CC2)C1 [Example 1, (2S,3S)-N-(2-(((1R,4S)-4-(4-(((1R,4R)-4-(((1R,2S,5R)-5-(Isopropyl(methyl)amino)-2-((S)-2-oxo-3-((6-(trifluoromethyl)quinazolin-4-yl)amino)pyrrolidin-1-yl)cyclohexyl)carbamoyl)cyclohexyl)amino)-4-oxobutoxy)cyclohexyl)oxy)ethyl)-1-methyl-5-oxo-2-(pyridin-3-yl)pyrrolidine-3-carboxamide] | 9.654 |  | 84.6 µM |  |  | 1.64e+06 M⁻¹ s⁻¹ | 0.000414 s⁻¹ | 9.6 | 25.6% | 5.57e+06 M⁻¹ s⁻¹ | 0.000156 s⁻¹ | 10.55 | 0.000456 s⁻¹ and 0.000649 s⁻¹ |

From patent publication US20250136722A1, “CYTOTOXICITY TARGETING CHIMERAS” (GLAXOSMITHKLINE INTELLECTUAL PROPERTY DEVELOPMENT LIMITED, priority 2021, published 2025)
